How the values were obtained:
Type in all cases: biochemical
adenosine A1 receptor = adenosine A1 receptor (Homo sapiens (Human), UniProt P30542); test: Adenosine receptor activity assay (Table 1), A1 cAMP
Description: (§1) Table 1. Compounds (e.g., Adenosine Receptor modulators) and activity assay results. The legend is as follows: A=<10 nM; B=10-50 nM; C=50-100 nM; D=100-500; and E=>500 nM. The ratio corresponds to the A2A activity to the A2B activity; or A2A/A2B.

adenosine A2B receptor = adenosine A2B receptor (Homo sapiens (Human), UniProt P29275); test: Adenosine receptor activity assay (Table 1), A2B activity; details: for Ratio: A2A activity to the A2B activity, A2A/A2B; for IC50: read-out: Ave A2B cAMP IC50
adenosine A3 receptor = adenosine A3 receptor (Homo sapiens (Human), UniProt P0DMS8); test: Adenosine receptor activity assay (Table 1), A3 cAMP
Description: as §1

adenosine A2A receptor = adenosine A2A receptor (Homo sapiens (Human), UniProt P29274); test: Adenosine receptor activity assay (Table 1), A2A activity; details: read-out: Ave A2A cAMP IC50
adenosine A2A receptor, sequence (P29274 whole entry): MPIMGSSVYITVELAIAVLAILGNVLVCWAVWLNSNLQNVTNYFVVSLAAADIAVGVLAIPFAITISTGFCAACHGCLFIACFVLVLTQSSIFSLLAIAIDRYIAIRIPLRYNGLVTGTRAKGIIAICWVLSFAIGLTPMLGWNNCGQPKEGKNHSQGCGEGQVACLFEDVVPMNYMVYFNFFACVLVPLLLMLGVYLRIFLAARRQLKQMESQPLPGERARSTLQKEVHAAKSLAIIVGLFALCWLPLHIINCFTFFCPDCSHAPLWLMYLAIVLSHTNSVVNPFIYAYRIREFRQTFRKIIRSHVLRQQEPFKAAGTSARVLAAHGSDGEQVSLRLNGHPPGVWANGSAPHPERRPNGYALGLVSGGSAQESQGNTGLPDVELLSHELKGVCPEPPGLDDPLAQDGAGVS

adenosine A1 receptor, sequence (P30542 whole entry): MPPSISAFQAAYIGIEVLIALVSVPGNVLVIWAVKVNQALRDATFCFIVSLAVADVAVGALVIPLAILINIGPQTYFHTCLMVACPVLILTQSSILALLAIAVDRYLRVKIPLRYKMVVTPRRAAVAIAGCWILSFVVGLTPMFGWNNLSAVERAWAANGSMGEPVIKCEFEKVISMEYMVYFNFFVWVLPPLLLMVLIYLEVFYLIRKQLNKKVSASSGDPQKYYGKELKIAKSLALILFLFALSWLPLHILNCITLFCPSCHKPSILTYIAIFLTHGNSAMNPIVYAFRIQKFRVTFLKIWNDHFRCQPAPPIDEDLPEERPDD
adenosine A3 receptor, sequence (P0DMS8 whole entry): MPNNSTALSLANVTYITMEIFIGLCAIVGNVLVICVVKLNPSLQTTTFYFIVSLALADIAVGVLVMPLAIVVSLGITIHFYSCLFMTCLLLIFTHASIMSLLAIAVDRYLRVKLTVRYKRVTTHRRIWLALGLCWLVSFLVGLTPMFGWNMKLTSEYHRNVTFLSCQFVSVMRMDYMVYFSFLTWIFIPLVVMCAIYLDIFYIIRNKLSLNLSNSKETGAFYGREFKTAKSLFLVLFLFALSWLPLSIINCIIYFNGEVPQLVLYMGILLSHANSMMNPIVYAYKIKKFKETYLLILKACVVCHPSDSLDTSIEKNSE
adenosine A2B receptor, sequence (P29275 whole entry): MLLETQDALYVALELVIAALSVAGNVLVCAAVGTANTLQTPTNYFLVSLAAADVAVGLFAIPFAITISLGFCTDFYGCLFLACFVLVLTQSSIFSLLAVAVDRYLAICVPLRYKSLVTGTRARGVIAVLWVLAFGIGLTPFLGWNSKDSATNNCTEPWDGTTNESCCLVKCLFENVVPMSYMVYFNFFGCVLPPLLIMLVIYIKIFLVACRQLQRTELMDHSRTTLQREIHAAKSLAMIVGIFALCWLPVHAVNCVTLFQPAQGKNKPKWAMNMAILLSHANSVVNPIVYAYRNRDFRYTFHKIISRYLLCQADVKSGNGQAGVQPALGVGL

Row | SMILES | IC50 (adenosine A1 receptor) | Ratio (adenosine A2B receptor) | IC50 (adenosine A2B receptor) | IC50 (adenosine A3 receptor) | IC50 (adenosine A2A receptor)
1 | CCNC(=O)c1ccc(CCNC(=O)c2nc(N[C@@H](C)c3cncc(F)c3)nc3cc(C)sc23)cc1 [Example Z506, (S)—N-(4-(Ethylcarbamoyl)phenethyl)-2-((1-(5-fluoropyridin-3-yl)ethyl)amino)-6-methylthieno[3,2-d]pyrimidine-4-carboxamide] | > 500 nM | 22.42 | 10 to 50 nM | > 500 nM | > 500 nM
2 | CCOC(=O)N(C)C1CN(C(=O)c2nc(N[C@@H](C)c3cncc(F)c3)nc3cc(C)sc23)C1 [Example Z507, Ethyl (S)-(1-(2-((1-(5-fluoropyridin-3-yl)ethyl)amino)-6-methylthieno[3,2-d]pyrimidine-4-carbonyl)azetidin-3-yl)(methyl)carbamate] | > 500 nM | 5.66 | 10 to 50 nM | > 500 nM | 50 to 100 nM
3 | Cc1cc2nc(N[C@@H](C)c3cncc(F)c3)nc(C(=O)N3CC(N(C)C(=O)CC(C)(C)C)C3)c2s1 [Example Z508, (S)—N-(1-(2-((1-(5-Fluoropyridin-3-yl)ethyl)amino)-6-methylthieno[3,2-d]pyrimidine-4-carbonyl)azetidin-3-yl)-N,3,3-trimethylbutanamide] | > 500 nM | 1.06 | 10 to 50 nM | > 500 nM | 10 to 50 nM
4 | CC(=O)N(C)C1CN(C(=O)c2nc(N[C@@H](C)c3cncc(F)c3)nc3cc(C)sc23)C1 [Example Z509, (S)—N-(1-(2-((1-(5-Fluoropyridin-3-yl)ethyl)amino)-6-methylthieno[3,2-d]pyrimidine-4-carbonyl)azetidin-3-yl)-N-methylacetamide] | > 500 nM | 80.91 | < 10 nM | > 500 nM | > 500 nM
5 | CC(C)OC(=O)NC1CN(C(=O)c2nc(N[C@@H](C)c3cncc(F)c3)nc3ccsc23)C1 [Example Z510, Isopropyl (S)-(1-(2-((1-(5-fluoropyridin-3-yl)ethyl)amino)thieno[3,2-d]pyrimidine-4-carbonyl)azetidin-3-yl)carbamate] | > 500 nM | 2.03 | 10 to 50 nM | > 500 nM | 10 to 50 nM
6 | Cc1cc2nc(N[C@@H](C)c3cncc(F)c3)nc(C(=O)N3CC(NC(=O)OC(C)C)C3)c2s1 [Example Z511, Isopropyl (S)-(1-(2-((1-(5-fluoropyridin-3-yl)ethyl)amino)-6-methylthieno[3,2-d]pyrimidine-4-carbonyl)azetidin-3-yl)carbamate] | > 500 nM | 2.90 | 10 to 50 nM | 50 to 100 nM | 10 to 50 nM
7 | Cc1cc2nc(N[C@@H](C)c3cncc(F)c3)nc(C(=O)N3CC(NC(=O)CNC(=O)c4ccccc4)C3)c2s1 [Example Z512, (S)—N-(2-((1-(2-((1-(5-Fluoropyridin-3-yl)ethyl)amino)-6-methylthieno[3,2-d]pyrimidine-4-carbonyl)azetidin-3-yl)amino)-2-oxoethyl)benzamide] | > 500 nM | 33.02 | 10 to 50 nM | > 500 nM | > 500 nM
8 | Cc1cc2nc(N[C@@H](C)c3cncc(F)c3)nc(C(=O)N3CC(NC(=O)C(C)(C)C)C3)c2s1 [Example Z513, (S)—N-(1-(2-((1-(5-Fluoropyridin-3-yl)ethyl)amino)-6-methylthieno[3,2-d]pyrimidine-4-carbonyl)azetidin-3-yl)pivalamide] | 100 to 500 nM | 0.18 | 10 to 50 nM | 10 to 50 nM | < 10 nM
9 | Cc1cc2nc(N[C@@H](C)c3cccnc3)nc(C(=O)N3CC(CO)C3)c2s1 [Example Z515, (S)-(3-(Hydroxymethyl)azetidin-1-yl)(6-methyl-2-((1-(pyridin-3-yl)ethyl)amino)thieno[3,2-d]pyrimidin-4-yl)methanone] | > 500 nM | 53.11 | 10 to 50 nM | > 500 nM | > 500 nM
10 | COCCC(=O)NC1CN(C(=O)c2nc(N[C@@H](C)c3cncc(F)c3)nc3cc(C)sc23)C1 [Example Z518, (S)—N-(1-(2-((1-(5-Fluoropyridin-3-yl)ethyl)amino)-6-methylthieno[3,2-d]pyrimidine-4-carbonyl)azetidin-3-yl)-3-methoxypropanamide] | > 500 nM | 5.46 | < 10 nM | > 500 nM | 10 to 50 nM
11 | C[C@H](Nc1nc(C(=O)N2CC(NC(=O)C3CCOC3)C2)c2sccc2n1)c1cncc(F)c1 (stereo partly drawn) [Example Z519, N-(1-(2-(((S)-1-(5-Fluoropyridin-3-yl)ethyl)amino)thieno[3,2-d]pyrimidine-4-carbonyl)azetidin-3-yl)tetrahydrofuran-3-carboxamide] | > 500 nM | 3.87 | < 10 nM | > 500 nM | 10 to 50 nM
12 | CCNC(=O)C1CCN(C(=O)c2nc(N[C@@H](C)c3cncc(F)c3)nc3ccsc23)C1 (stereo partly drawn) [Example Z520, N-Ethyl-1-(2-(((S)-1-(5-fluoropyridin-3-yl)ethyl)amino)thieno[3,2-d]pyrimidine-4-carbonyl)pyrrolidine-3-carboxamide] | > 500 nM | 27.57 | < 10 nM | > 500 nM | 100 to 500 nM
13 | Cc1cc2nc(N[C@@H](C)c3cncc(F)c3)nc(C(=O)N3CC(NC(=O)C4CC4)C3)c2s1 [Example Z522, (S)—N-(1-(2-((1-(5-Fluoropyridin-3-yl)ethyl)amino)-6-methylthieno[3,2-d]pyrimidine-4-carbonyl)azetidin-3-yl)cyclopropanecarboxamide] | > 500 nM | 1.58 | < 10 nM | 100 to 500 nM | 10 to 50 nM
14 | Cc1cc2nc(N[C@@H](C)c3cncc(F)c3)nc(C(=O)N3CC(NC(=O)C4CCOC4)C3)c2s1 (stereo partly drawn) [Example Z523, N-(1-(2-(((S)-1-(5-Fluoropyridin-3-yl)ethyl)amino)-6-methylthieno[3,2-d]pyrimidine-4-carbonyl)azetidin-3-yl)tetrahydrofuran-3-carboxamide] | > 500 nM | 1.40 | < 10 nM | 100 to 500 nM | 10 to 50 nM
15 | CC1CCN1C(=O)c1nc(N[C@@H](C)c2cncc(F)c2)nc2ccsc12 (stereo partly drawn) [Example Z524, (2-(((S)-1-(5-Fluoropyridin-3-yl)ethyl)amino)thieno[3,2-d]pyrimidin-4-yl)(2-methylazetidin-1-yl)methanone] | > 500 nM | 11.94 | < 10 nM | > 500 nM | 50 to 100 nM
16 | CC(C)(C)C(=O)N[C@H]1CCN(C(=O)c2nc(NCc3cncc(F)c3)nc3ccsc23)C1 [Example Z526, (S)—N-(1-(2-(((5-Fluoropyridin-3-yl)methyl)amino)thieno[3,2-d]pyrimidine-4-carbonyl)pyrrolidin-3-yl)pivalamide] | > 500 nM | 4.26 | 10 to 50 nM | > 500 nM | 50 to 100 nM
17 | CC(=O)NCC1CN(C(=O)c2nc(N[C@@H](C)c3cncc(F)c3)nc3ccsc23)C1 [Example Z528, (S)—N-((1-(2-((1-(5-Fluoropyridin-3-yl)ethyl)amino)thieno[3,2-d]pyrimidine-4-carbonyl)azetidin-3-yl)methyl)acetamide] | > 500 nM | 44.92 | < 10 nM | > 500 nM | 100 to 500 nM
18 | C[C@H](Nc1nc(C(=O)N2CC(CNC(=O)C(C)(C)C)C2)c2sccc2n1)c1cncc(F)c1 [Example Z529, (S)—N-((1-(2-((1-(5-Fluoropyridin-3-yl)ethyl)amino)thieno[3,2-d]pyrimidine-4-carbonyl)azetidin-3-yl)methyl)pivalamide] | > 500 nM | 4.15 | 10 to 50 nM | > 500 nM | 100 to 500 nM
19 | CC(=O)NC1CN(C(=O)c2nc(N[C@@H](C)c3cncc(F)c3)nc3ccsc23)C1 [Example Z530, (S)—N-(1-(2-((1-(5-Fluoropyridin-3-yl)ethyl)amino)thieno[3,2-d]pyrimidine-4-carbonyl)azetidin-3-yl)acetamide] | > 500 nM | 6.99 | 10 to 50 nM | > 500 nM | 100 to 500 nM
20 | C[C@H](Nc1nc(C(=O)N2CC(CNS(C)(=O)=O)C2)c2sccc2n1)c1cncc(F)c1 [Example Z531, (S)—N-((1-(2-((1-(5-Fluoropyridin-3-yl)ethyl)amino)thieno[3,2-d]pyrimidine-4-carbonyl)azetidin-3-yl)methyl)methanesulfonamide] | > 500 nM | 19.43 | 10 to 50 nM | > 500 nM | 100 to 500 nM
21 | CC(=O)N[C@@H]1CCN(C(=O)c2nc(N[C@@H](C)c3cncc(F)c3)nc3cc(C)sc23)C1 [Example Z532, N—((R)-1-(2-(((S)-1-(5-Fluoropyridin-3-yl)ethyl)amino)-6-methylthieno[3,2-d]pyrimidine-4-carbonyl)pyrrolidin-3-yl)acetamide] | > 500 nM | 149.69 | 10 to 50 nM | > 500 nM | > 500 nM
22 | Cc1cc2nc(N[C@@H](C)c3cncc(F)c3)nc(C(=O)NCCC3CN(C)C3)c2s1 [Example Z535, (S)-2-((1-(5-Fluoropyridin-3-yl)ethyl)amino)-6-methyl-N-(2-(1-methylazetidin-3-yl)ethyl)thieno[3,2-d]pyrimidine-4-carboxamide] | > 500 nM | 244.67 | 10 to 50 nM | > 500 nM | > 500 nM

— US11254686B1 (Corvus Pharmaceuticals, Inc., priority 2017, dated 2022)
